Experimental data from patent EP1028734B1, “USE OF SPECIFIC STEADY-STATE R-TYPE CALCIUM CHANNEL BLOCKERS” (priority 1997, dated 1999).

Key:
murine model of pleurisy = assay type: in vivo, mice
Procedure: (§1) To assess further the anti-inflammatory action of MV 8612 and MV 8608, their effects against the inflammatory responses caused by several mediators of inflammation in a murine model of pleurisy were tested (Saleh et al., 1996, Br. J. Pharmacol 118:811-819). In addition, both compounds were tested against the increase of vascular permeability caused by bradykinin in the rat skin (Neves et al., 1993b, Phytotherapy Research. 7:356-362).

[1] = system: double-perfused mesenteric bed of the rat; experiment: double-perfused mesenteric bed of the rat
Text: The inhibitory properties of MV8608 are specific for PAF as the response to ACh (arterial) and Angll (venous) are unaffected by the pregnane-containing moiety.

R-type Ca^2+ channel [2] = experiment: confocal Fluo-3 3-dimension measurement of cytosolic [Ca]c and nuclear [Ca]n; assay type: cell-based, chick, human
[3] = bradykinin-induced skin vascular permeability in rats; assay type: in vivo, rat
Procedure: as §1

R-type Ca^2+ channel [4] = experiment: Fura-2 total [Ca]i measurement, sustained increase of [Ca]i via stimulation of R-type Ca2+ channels; assay type: cell-based, chick, human, rabbit
Text: This sustained increase of Ca^2+ induced by depolarization of the cell membrane or hormones such as PAF, ET-1 and bradykinin is due to the increase of Ca^2+ influx through the R-type Ca^2+ channels at the sarcolemmal membrane and/or the nuclear membrane (Bkaily G., 1994, supra; 1996, supra; 1997a-d, supra). Using Ca^2+ fluorescence probes Fura-2 or Fluo-3 and 2 and three-dimension Ca^2+ imaging techniques (Bkaily G., 1994, supra; 1996, supra; 1997a-d, supra), the effect of hormones and drugs could be easily tested. These two methods are used with single cells of different types as described above. […]
Using Fura-2 [Ca]i measurement technique, in one series of experiments we tested the effect of MV8612 (10^-9M) on the stimulation of R-type Ca^2+-induced sustained increase of [Ca]i by sustained depolarization (Figures 26 and 27), PAF (10^-9M, Figure 34) and ET-1 (Figures 33 and 34).

human lymphocyte = human lymphocyte proliferation in vitro; assay type: cell-based; settings: MV 8612, MV 8608 14.5 to 116 M
Procedure: In a separate series of experiments, compounds MV 8612 and MV 8608 were tested to analyze whether they interfered with human lymphocyte proliferation "in vitro". These experiments were carried out as reported previously (Moraes et al., 1996, Eur. J. Pharmacol. 312:333-339).

rat uterus = settings: Calixto et al., 1987; cited from earlier work
[5] = MV 8612 30 and 60, MV 8608 30, i.p.

(15R, 16R, 20S)-14, 16:15,20:16,21-triepoxi-15,16-seco 14β, 17α-pregn-5-ene-3β, 15-diol [MV8608]
mononuclear cells influx, intrapleural PAF (murine model of pleurisy; 30, i.p.): antagonised significantly
plasma extravasation, intrapleural PAF (murine model of pleurisy; 30, i.p.): antagonised significantly
neutrophils cells, intrapleural carrageenan (murine model of pleurisy; [5]): inhibited significantly
total cells, intrapleural carrageenan (murine model of pleurisy; [5]): inhibited significantly
response to ACh (arterial) and AngII (venous) [1]: unaffected
PAF induced arterial vasodilatation and venconstriction ([1]; 1 µM, Figure 24): blocked
PAF-induced responses ([1]; concentration series): concentration-dependent inhibition
sustained increase of [Ca]c and [Ca]n induced with high concentration of PAF (10^-7M) (R-type Ca^2+ channel [2]; 10^-6M of compound, back to the control level, Figure 29B): significantly decrease
cytosolic and nuclear Ca^2+ sustained overload induced by 30mM KCl and PAF (R-type Ca^2+ channel [2]; 10^-7M of compound, nifedipine present): blocked both the cytosolic and nuclear Ca^2+ sustained overload
prevention of stimulation of the R-type Ca^2+ channel by sustained depolarization (R-type Ca^2+ channel [2]; 10^-8 M and 10^-7 M, dose-dependent): prevented
prevention of high PAF (10^-7 M) action (R-type Ca^2+ channel [2]; 10^-9M of compound): succeeded in preventing
sustained depolarization induced sustained increase of [Ca]c and [Ca]n (R-type Ca^2+ channel [2]; heart cells, Figure 29 panel A): blocked completely
increase of vascular permeability caused by bradykinin in the rat skin [3]: antagonised in a dose-related manner
sustained increase of [Ca]i induced by 10^-7M PAF (R-type Ca^2+ channel [4]; 10^-6M of compound, human aortic VSM cell line (Figure 23)): able to block
sustained increase of [Ca]i induced by 10^-7M PAF (R-type Ca^2+ channel [4]; 10^-9M of compound): failed to significantly decrease
sustained increase of [Ca]i induced by sustained depolarization, ET-1 (10^-9M), PAF (10^-9M) or BK (10^-6M) (R-type Ca^2+ channel [4]; 10^-9M of compound): completely blocked
time within which the block occurred (R-type Ca^2+ channel [4]; 10^-9M of compound): 4 to 5 min
basal sustained increase of [Ca]i (R-type Ca^2+ channel [4]; 10^-9M, freshly isolated human aortic endothelial cells, Figure 22): decrease
blockade of the R-type Ca^2+ channel across cell types (R-type Ca^2+ channel [4]; incl. MG63, FAOS-2, atherosclerotic human VSM cells, endothelial cells, T-lymphocytes, platelets (not shown), AOSMC-9): blocked the R-type Ca^2+ channel in all cell types used
human lymphocyte proliferation (human lymphocyte): graded inhibition
contraction of rat uterus induced by BK (rat uterus): selective in its ability to inhibit
